# Assay results from patent publication EP0689839A2, “Use of inhibitors of adenosine triphosphatase for the manufacture of a medicament for the treatment of disorders anociated with beta-amyloid peptide” (ELI LILLY AND COMPANY, priority 1994, dated 1996).
# Where “and” joins values, the source holds several entries; their conditions need not be identical. Equal entries are not always repeated.
# Legend:
# [1] = tested on: β-amyloid peptide; assay: β-Amyloid Peptide Production Inhibition (Cellular Assay), ELISA of conditioned media; type: cell-based; conditions: normalized for cytotoxicity (MTT)
# Procedure: (§1) Two cell lines (human kidney cell line 293 and Chinese hamster ovary cell line CHO) were stably transfected with the gene for APP751 containing the double mutation Lys₆₅₁-Met₆₅₂ to Asn₆₅₁-Leu₆₅₂ (APP-751 numbering) commonly called the Swedish mutation using the method described in Citron, et al., Nature (London), 360:672-674 (1992). The transfected cell lines were designated as 293 751 SWE and CHO 751 SWE, and were plated in Corning 96 well plates at 2.5 x 10⁴ or 1 x 10⁴ cells per well respectively in Dulbecco's […] essential media (DMEM) plus 10% fetal bovine serum. Following overnight incubation at 37°C in an incubator equilibrated with 10% carbon dioxide (CO₂) and humidified air, the media were removed and replaced with 200 µl per well of media containing a macrolide. After a two hour pretreatment period, the media were again removed and replaced with fresh media containing the test compound and the cells were incubated for an additional two hours.
# After treatment, plates were centrifuged at 1200 x g for five minutes at room temperature to pellet cellular debris from the conditioned media. From each well, 100 µl of conditioned media were transferred into an ELISA plate precoated with antibody 266 against βamyloid peptide(13-28) (Seubert et al., supra.) and stored at 4°C overnight. An ELISA assay employing labelled antibody 6C6 (against β-amyloid peptide-1-16) was run the next day to measure the amount of β-amyloid peptide produced.
# The results of the β-amyloid peptide ELISA were fit to a standard curve and expressed as ng/ml β-amyloid peptide. In order to normalize for cytotoxicity, these β-amyloid peptide results were divided by the MTT results and expressed as a percentage of the results from a drug-free control.
# [2] = tested on: 293 751 SWE and CHO 751 SWE; assay: Cytotoxic effects / cellular viability by MTT in the cellular assay; type: cell-based
# Procedure: as §1
# Cytotoxic effects of the compounds were measured by a modification of the method of Hansen, et al., Journal of Immununological Methods, 119:203-210 (1989). […] The difference in the OD562nm and the OD650nm was measured in a UVmax microplate reader as an indicator of the cellular viability.
# [3] = tested on: β-amyloid peptide; assay: β-amyloid peptide production in human fetal primary cortical cultures (ELISA); type: cell-based; conditions: 1 µM; twenty four hour-conditioned medium; endogenous amyloid precursor protein
# Procedure: In order to better understand this phenomenon, human fetal primary cortical cultures, which secrete β-amyloid peptide as a result of endogenous amyloid precursor protein processing, were treated with 1 µM bafilomycin. Twenty four hour-conditioned medium was collected and evaluated using enzyme-linked immunosorbent assay (ELISA).
# [4] = tested on: human fetal primary cortical cultures; assay: Cytotoxicity in human fetal primary cortical cultures; type: cell-based; conditions: 1 µM
# [5] = tested on: vacuolar ATPases; conditions: relative to other bafilomycins; cited from earlier work
# [6] = 1 µg/ml, read-out: Percent Inhibition
compound,measurement,setting,value
"CO/C1=C\C(C)=C\C(C)C(O)C(C)C/C(C)=C/C=C/C(OC)C(C(C)C(O)C(C)C2(O)CC(O)C(C)C(C(C)C)O2)OC1=O (stereo not shown) [Bafilomycin A₁, bafilomycin A₁]",Percent Inhibition,[1]; 0.3 µM,91 ± 1% and 92 ± 1%
same,inhibition at 0.3 µM,"[1]; 0.3 µM, read-out: Percent Inhibition",90 ± 2%
CO/C1=C\C(C)=C\C(C)C(O)C(C)C/C(C)=C/C=C/C(OC)C(C(C)C(O)C(C)C2(O)CC(OC(=O)/C=C/C(=O)O)C(C)C(C(C)C)O2)OC1=O (stereo not shown) [Bafilomycin C₁],inhibition at 1 µg/mL,[1]; [6],90 ± 2%
"CO/C1=C\C(C)=C\C(C)C(O)C(C)C/C(C)=C/C=C/C(OC)C(C(C)C(O)C(C)C(=O)/C=C/C(C)C(O)C(C)C)OC1=O (stereo not shown) [Bafilomycin D, bafilomycin D]",inhibition at 1 µg/mL,[1]; [6],4 ± 3%
"C/C=C/[C@H]1O[C@@](O)([C@@H](C)[C@H](O)[C@H](C)[C@H]2OC(=O)/C(OC)=C/C(C)=C/[C@@H](C)[C@@H](O)[C@@H](CC)[C@@H](O)[C@H](C)C/C(C)=C/C=C/[C@@H]2OC)C[C@@H](O[C@H]2C[C@@H](O)[C@H](OC(N)=O)[C@@H](C)O2)[C@@H]1C [Concanamycin A, concanamycin A]",Percent Viability,[2]; 1.2 µM,97%
same,Percent Inhibition,[1]; 1.2 µM,74 ± 4%
CO/C1=C\C(C)=C\[C@@H](C)[C@@H](O)[C@@H](C)C/C(C)=C/C=C/[C@H](OC)[C@@H]([C@@H](C)[C@@H](O)[C@H](C)[C@@]2(O)C[C@@H](O)[C@H](C)[C@@H](C(C)C)O2)OC1=O [bafilomycin],inhibition of β-amyloid peptide production,[3],Greater than 75%
same,cytotoxicity,[4],no cytotoxicity was observed
Bafilomycin B₁,Percent Inhibition,[1]; 1 µg/ml,87 ± 1%
bafilomycin A₁,Percent Viability,[2]; 0.3 µM,112% and 99% and 102%
bafilomycin D,"poorer inhibitor of vacuolar ATPases than other bafilomycins, especially bafilomycin A1",[5],~40 fold
elaiophyline,Percent Inhibition,[1]; 0.6 µM,98 ± 2%
same,Percent Inhibition,[1]; 1.2 µM,100 ± 1%
same,Percent Inhibition,[1]; 2.4 µM,100 ± 2%
same,Percent Inhibition,[1]; 4.9 µM,100 ± 1%
same,Percent Inhibition,[1]; 9.8 µM,100 ± 1% and 131 ± 1%
